This note sets out measurements from US9512087B2, “Hybrid molecules containing pharmacophores of fluconazole as antifungal agents and their preparation” (Council for Scientific & Industrial Research, priority 2011, dated 2016).

What all share (assay): Antifungal MIC, broth dilution
For orientation: In broth dilution the organism is exposed to a series of concentrations in liquid medium.

One experiment deals with C. albicans ATCC 24433. The format is cell-based, Candida albicans. The following applies: Candida albicans, ATCC24433, RPMI 1640 with MOPS, end point 48 hours; for MIC80: read-out: Ca01 A: MIC80; for MIC50: read-out: Ca01 B: MIC50. The gist of the method: (§1)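 Broth dilution in RPMI 1640 with MOPS buffer per CLSI M27-A2 (yeasts) and M38-A (filamentous fungi); fluconazole and amphotericin-B as positive controls. MIC end points read after 48 hours, visually or by spectrophotometer where needed.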

The test system of the next experiment is C. glabrata ATCC 90030. The format is cell-based. The note with it: Nakaseomyces glabratus, ATCC90030, RPMI 1640 with MOPS, end point 48 hours, read-out: Cg01 MIC50.
For a further experiment, the system named is C. krusei ATCC 6258. It counts as cell-based. The note with it: Pichia kudriavzevii, ATCC6258, RPMI 1640 with MOPS, end point 48 hours, read-out: Ck01 MIC50.
For a further experiment, the system named is C. tropicalis ATCC 750. The format is cell-based. The following applies: Candida tropicalis, ATCC750, RPMI 1640 with MOPS, end point 48 hours, read-out: Ct01 MIC50.
The subject of the next experiment is C. neoformans ATCC 34664. It counts as cell-based. The following applies: Cryptococcus neoformans, ATCC34664, RPMI 1640 with MOPS, end point 48 hours, read-out: Cn01 MIC50.
The next experiment has as its system A. niger ATCC 16404. The format is cell-based, Aspergillus niger. The note with it: Aspergillus niger, ATCC16404, RPMI 1640 with MOPS, end point 48 hours, read-out: An01 MIC50. The gist of the method:
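Read-out: lowest concentration inhibiting growth after 48 hours, judged visually or spectrophotometrically as required. Testing used the CLSI broth dilution standards M27-A2 and M38-A in RPMI 1640 containing MOPS buffer.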

The next experiment relates to A. fumigatus ATCC 46645. It counts as cell-based. The following applies: Aspergillus fumigatus, ATCC46645, RPMI 1640 with MOPS, end point 48 hours, read-out: Afm01 MIC50.
For experiment [1], the system named is F. proliferatum ATCC 10052. It counts as cell-based, Fusarium proliferatum. The note with it: Fusarium proliferatum, ATCC10052, RPMI 1640 with MOPS, end point 48 hours, read-out: Fp01 MIC50. A digest of the protocol: as §1

Molecules are shown by their SMILES. In brackets after ≈: the same amount, converted by molar mass.

What is called MIC80 is an inhibitory concentration at the 80% level, which refers to growth in some studies and to a panel of isolates in others. For orientation: MIC50 means the lowest concentration that inhibits either 50% of growth or 50% of the strains tested, depending on the study. For the molecule `COc1ccc(/C=C/C(=O)c2ccc(OC[C@](O)(Cn3cncn3)c3ccc(F)cc3F)cc2)cc1` [R-(−)-1A-2], the MIC80 in the experiment with C. albicans ATCC 24433 worked out at 0.12 µg/mL (≈ 0.244 µM). In addition, the MIC50 with C. albicans ATCC 24433 was determined as 0.06 µg/mL (≈ 0.122 µM); with C. glabrata ATCC 90030, 0.06 µg/mL (≈ 0.122 µM); with C. krusei ATCC 6258 it was 2 µg/mL (≈ 4.07 µM); in the experiment with C. tropicalis ATCC 750, 0.25 µg/mL (≈ 0.509 µM); with C. neoformans ATCC 34664 it was 0.5 µg/mL (≈ 1.02 µM); in the experiment with A. niger ATCC 16404, 2 µg/mL (≈ 4.07 µM). For the same molecule, the MIC50 (with A. fumigatus ATCC 46645; in experiment [1]) was above 4 µg/mL in each case.
Consider `O=C(/C=C/c1ccc(Cl)cc1)c1ccc(OC[C@](O)(Cn2cncn2)c2ccc(F)cc2F)cc1` [R-(−)-1A-6, R-(−)-(E)-3-(4-chlorophenyl)-1-(4-(2-(2,4-difluorophenyl)-2-hydroxy-3-(1H-1,2,4-triazol-1-yl)propoxy)phenyl)prop-2-en-1-one], for which the MIC80 in the experiment on C. albicans ATCC 24433 is 0.12 µg/mL (≈ 0.242 µM). In addition, the MIC50 with C. albicans ATCC 24433 is 0.06 µg/mL (≈ 0.121 µM); in the experiment with C. glabrata ATCC 90030, 0.12 µg/mL (≈ 0.242 µM); with C. krusei ATCC 6258, 1 µg/mL (≈ 2.02 µM); in the experiment on C. tropicalis ATCC 750, 0.5 µg/mL (≈ 1.01 µM); with C. neoformans ATCC 34664 it was 0.25 µg/mL (≈ 0.504 µM); in the experiment with A. niger ATCC 16404, above 4 µg/mL. Moreover, the MIC50 (in the experiment with A. fumigatus ATCC 46645; in experiment [1]) was above 4 µg/mL throughout.
On to `O=C(/C=C/c1cccs1)c1ccc(OC[C@](O)(Cn2cncn2)c2ccc(F)cc2F)cc1` [R-(−)-1A-13], for which the MIC80 in the experiment on C. albicans ATCC 24433 is 0.12 µg/mL (≈ 0.257 µM). In addition, the MIC50 in the experiment with C. albicans ATCC 24433 was 0.03 µg/mL (≈ 0.0642 µM); with C. glabrata ATCC 90030 it was 0.03 µg/mL (≈ 0.0642 µM); in the experiment with C. krusei ATCC 6258, 2 µg/mL (≈ 4.28 µM); in the experiment on C. tropicalis ATCC 750, 0.12 µg/mL (≈ 0.257 µM); in the experiment with C. neoformans ATCC 34664, 0.5 µg/mL (≈ 1.07 µM); in the experiment on A. niger ATCC 16404, above 4 µg/mL. In addition, the MIC50 (with A. fumigatus ATCC 46645; in experiment [1]) was above 4 µg/mL throughout.
For `COc1ccc(/C=C/C(=O)c2ccc(OC[C@@](O)(Cn3cncn3)c3ccc(F)cc3F)cc2)cc1` [S-(+)-1A-2], in the experiment on C. albicans ATCC 24433, the MIC80 was found to be 1 µg/mL (≈ 2.03 µM). The MIC50 in the experiment on C. albicans ATCC 24433 was 0.5 µg/mL (≈ 1.02 µM); in the experiment on C. glabrata ATCC 90030, 1 µg/mL (≈ 2.03 µM); in the experiment with C. krusei ATCC 6258, above 4 µg/mL; with C. tropicalis ATCC 750 it was 2 µg/mL (≈ 4.07 µM); in the experiment with C. neoformans ATCC 34664, 2 µg/mL (≈ 4.07 µM); with A. niger ATCC 16404, above 4 µg/mL. For the same molecule, the MIC50 (with A. fumigatus ATCC 46645; in experiment [1]) was above 4 µg/mL each time.
With `O=C(/C=C/c1ccc(Cl)cc1)c1ccc(OC[C@@](O)(Cn2cncn2)c2ccc(F)cc2F)cc1` [S-(+)-1A-6, S-(+)-(E)-3-(4-chlorophenyl)-1-(4-(2-(2,4-difluorophenyl)-2-hydroxy-3-(1H-1,2,4-triazol-1-yl)propoxy)phenyl)prop-2-en-1-one], the MIC80 with C. albicans ATCC 24433 came out at 2 µg/mL (≈ 4.03 µM). In addition, the MIC50 is 1 µg/mL (≈ 2.02 µM) in the experiment with C. albicans ATCC 24433; 0.5 µg/mL (≈ 1.01 µM) with C. glabrata ATCC 90030; 4 µg/mL (≈ 8.07 µM) with C. krusei ATCC 6258; 2 µg/mL (≈ 4.03 µM) in the experiment with C. tropicalis ATCC 750; 2 µg/mL (≈ 4.03 µM) with C. neoformans ATCC 34664; above 4 µg/mL with A. niger ATCC 16404. Moreover, the MIC50 (in the experiment on A. fumigatus ATCC 46645; in experiment [1]) was above 4 µg/mL each time.
In the case of `O=C(/C=C/c1cccs1)c1ccc(OC[C@@](O)(Cn2cncn2)c2ccc(F)cc2F)cc1` [S-(+)-1A-13], the MIC80 in the experiment on C. albicans ATCC 24433 was determined as 0.5 µg/mL (≈ 1.07 µM). In addition, the MIC50 in the experiment on C. albicans ATCC 24433 was 0.25 µg/mL (≈ 0.535 µM); in the experiment on C. glabrata ATCC 90030, 0.25 µg/mL (≈ 0.535 µM); with C. krusei ATCC 6258, above 4 µg/mL; in the experiment with C. tropicalis ATCC 750 it was 2 µg/mL (≈ 4.28 µM); in the experiment with C. neoformans ATCC 34664, 4 µg/mL (≈ 8.56 µM); in the experiment with A. niger ATCC 16404 it was above 4 µg/mL. Further, the MIC50 (in the experiment with A. fumigatus ATCC 46645; in experiment [1]) was above 4 µg/mL each time.
